Measurements published in patent US7858786B2, “Pyrimidines and pyrazines useful as modulators of ion channels” (Vertex Pharmaceuticals Incoropated, priority 2005, dated 2010).

Target: NaV1.8 (Homo sapiens, UniProt Q9Y5Y9)
Experiment: Activity against NaV 1.8 channel (NaV inhibition assay)
Type: cell-based
Procedure: Compounds of the invention are useful as antagonists of voltage-gated sodium ion channels. Antagonist properties of test compounds were assessed as follows. Cells expressing the NaV of interest were placed into microtiter plates. After an incubation period, the cells were stained with fluorescent dyes sensitive to the transmembrane potential. The test compounds were added to the microtiter plate. The cells were stimulated with either a chemical or electrical means to evoke a NaV dependent membrane potential change from unblocked channels, which was detected and measured with trans-membrane potential-sensitive dyes. Antagonists were detected as a decreased membrane potential response to the stimulus. The optical membrane potential assay utilized voltage-sensitive FRET sensors described by Gonzalez and Tsien (See, Gonzalez, J. E. and R. Y. Tsien (1995) “Voltage sensing by fluorescence resonance energy transfer in single cells” Biophys J 69(4):1272-80, and Gonzalez, J. E. and R. Y. Tsien (1997) “Improved indicators of cell membrane potential that use fluorescence resonance energy transfer” Chem Biol 4(4):269-77) in combination with instrumentation for measuring fluorescence changes such as the Voltage/Ion Probe Reader (VIPRO®) (See, Gonzalez, J. E., K. Oades, et al. (1999) “Cell-based assays and instrumentation for screening ion-channel targets” Drug Discov Today 4(9):431-439).
24 hours before the assay on VIPR, CHO cells endogenously expressing a NaV1.2 type voltage-gated NaV are seeded in 96-well poly-lysine coated plates at 60,000 cells per well. Other subtypes are performed in an analogous mode in a cell line expressing the NaV of interest.
The following is an example of how NaV1.3 inhibition activity is measured using the optical membrane potential method #2. Other subtypes are performed in an analogous mode in a cell line expressing the NaV of interest.
HEK293 cells stably expressing NaV1.3 are plated into 96-well microtiter plates. After an appropriate incubation period, the cells are stained with the voltage sensitive dyes CC2-DMPE/DiSBAC2(3) as follows.
Patch clamp electrophysiology was used to assess the efficacy and selectivity of sodium channel blockers in dorsal root ganglion neurons. Rat neurons were isolated from the dorsal root ganglions and maintained in culture for 2 to 10 days in the presence of NGF (50 ng/ml) (culture media consisted of NeurobasalA supplemented with B27, glutamine and antibiotics). Small diameter neurons (nociceptors, 8-12 μm in diameter) have been visually identified and probed with fine tip glass electrodes connected to an amplifier (Axon Instruments). The “voltage clamp” mode has been used to assess the compound's IC50 holding the cells at −60 mV. In addition, the “current clamp” mode has been employed to test the efficacy of the compounds in blocking action potential generation in response to current injections. The results of these experiments have contributed to the definition of the efficacy profile of the compounds.
TTX-resistant sodium currents were recorded from DRG somata using the whole-cell variation of the patch clamp technique. Recordings were made at room temperature (˜22° C.) with thick walled borosilicate glass electrodes (WPI; resistance 3-4 MΩ) using an Axopatch 200B amplifier (Axon Instruments). After establishing the whole-cell configuration, approximately 15 minutes were allowed for the pipette solution to equilibrate within the cell before beginning recording. Currents were lowpass filtered between 2-5 kHz and digitally sampled at 10 kHz. Series resistance was compensated 60-70% and was monitored continuously throughout the experiment. The liquid junction potential (−7 mV) between the intracellular pipette solution and the external recording solution was not accounted for in the data analysis. Test solutions were applied to the cells with a gravity driven fast perfusion system (SF-77; Warner Instruments). […]

| Structure (SMILES) | IC50 [µM] |
| --- | --- |
| CC(C)(C)OC(=O)N[C@@H]1CCN(c2cncc(-c3ccccc3C(F)F)n2)C1 [Compound 43, [1-[6-[2-(difluoromethyl)phenyl]pyrazin-2-yl]pyrrolidin-3-yl]aminoformic acid tert-butyl ester] | 10 to 15 |
| CC(C)COC(=O)N1CCN(c2ccnc(-c3ccccc3F)n2)CC1 [Compound 10, 4-[2-(2-fluorophenyl)pyrimidin-4-yl]piperazine-1-carboxylic acid isobutyl ester] | > 15 |
| CC(C)COC(=O)NC1CCN(c2cncc(-c3ccccc3C(F)F)n2)CC1 [Compound 48, [1-[6-[2-(difluoromethyl)phenyl]pyrazin-2-yl]-4-piperidyl]aminoformic acid isobutyl ester] | < 10 |
| CC(C)C[C@@H](O)C(=O)N1CCN(c2nccc(-c3ccccc3O)n2)CC1 [Compound 39, 2-hydroxy-1-[4-[4-(2-hydroxyphenyl)pyrimidin-2-yl]piperazin-1-yl]-4-methyl-pentan-1-one] | < 10 |
| CC(C)(C)OC(=O)NC1CCN(c2cncc(-c3ccccc3F)n2)CC1 [Compound 3, [1-[6-(2-fluorophenyl)pyrazin-2-yl]-4-piperidyl]aminoformic acid tert-butyl ester] | < 10 |
| CC(C)COC(=O)NC1CCN(c2cncc(-c3ccccc3F)n2)CC1 [Compound 45, [1-[6-(2-fluorophenyl)pyrazin-2-yl]-4-piperidyl]aminoformic acid isobutyl ester] | < 10 |
| CC(C)COC(=O)N1CCN(c2cc(-c3ccccc3O)ncn2)CC1 [Compound 20, 4-[6-(2-hydroxyphenyl)pyrimidin-4-yl]piperazine-1-carboxylic acid isobutyl ester] | 10 to 15 |
| CC(C)C[C@@H](O)C(=O)N1CCN(c2cc(-c3ccccc3C(F)F)ncn2)CC1 [Compound 49, 1-[4-[6-[2-(difluoromethyl)phenyl]pyrimidin-4-yl]piperazin-1-yl]-2-hydroxy-4-methyl-pentan-1-one] | > 15 |
| CC(C)COC(=O)N1CCN(c2cncc(-c3ccccc3C(F)F)n2)CC1 [Compound 15, 4-[6-[2-(difluoromethyl)phenyl]pyrazin-2-yl]piperazine-1-carboxylic acid isobutyl ester] | 10 to 15 |
| CC(C)C[C@@H](O)C(=O)N1CCN(c2nccc(-c3ccccc3C(F)F)n2)CC1 [Compound 6, 1-[4-[4-[2-(difluoromethyl)phenyl]pyrimidin-2-yl]piperazin-1-yl]-2-hydroxy-4-methyl-pentan-1-one] | 10 to 15 |
| CC(C)COC(=O)NC1CCN(c2nccc(-c3ccccc3C(F)F)n2)CC1 [Compound 31, [1-[4-[2-(difluoromethyl)phenyl]pyrimidin-2-yl]-4-piperidyl]aminoformic acid isobutyl ester] | < 10 |
| COCCOC(=O)NC1CCN(c2cncc(-c3ccccc3C(F)F)n2)CC1 [Compound 19, [1-[6-[2-(difluoromethyl)phenyl]pyrazin-2-yl]-4-piperidyl]aminoformic acid 2-methoxyethyl ester] | < 10 |
| CC(C)COC(=O)NC1CCN(c2ccnc(-c3ccccc3C(F)F)n2)CC1 [Compound 13, [1-[2-[2-(difluoromethyl)phenyl]pyrimidin-4-yl]-4-piperidyl]aminoformic acid isobutyl ester] | < 10 |
| CC(C)COC(=O)N1CCN(c2nccc(-c3ccccc3O)n2)CC1 [Compound 25, 4-[4-(2-hydroxyphenyl)pyrimidin-2-yl]piperazine-1-carboxylic acid isobutyl ester] | < 10 |
| CC(C)(C)OC(=O)N[C@@H]1CCN(c2cncc(-c3ccccc3O)n2)C1 [Compound 40, [1-[6-(2-hydroxyphenyl)pyrazin-2-yl]pyrrolidin-3-yl]aminoformic acid tert-butyl ester] | > 15 |
| COCCOC(=O)NC1CCN(c2cncc(-c3ccccc3O)n2)CC1 [Compound 47, [1-[6-(2-hydroxyphenyl)pyrazin-2-yl]-4-piperidyl]aminoformic acid 2-methoxyethyl ester] | > 15 |

| Structure (SMILES) | IC50 [µM] |
| --- | --- |
| CC(C)COC(=O)NC1CCN(c2nccc(-c3ccccc3O)n2)CC1 [Compound 1, [1-[4-(2-hydroxyphenyl)pyrimidin-2-yl]-4-piperidyl]aminoformic acid isobutyl ester] | > 15 |
| CC(C)C[C@@H](O)C(=O)N1CCN(c2cncc(-c3ccccc3O)n2)CC1 [Compound 38, 2-hydroxy-1-[4-[6-(2-hydroxyphenyl)pyrazin-2-yl]piperazin-1-yl]-4-methyl-pentan-1-one] | > 15 |
| CC(C)COC(=O)NC1CCN(c2cncc(-c3ccccc3O)n2)CC1 [Compound 18, [1-[6-(2-hydroxyphenyl)pyrazin-2-yl]-4-piperidyl]aminoformic acid isobutyl ester] | < 10 |
| CC(C)(C)OC(=O)NC1CCN(c2cncc(-c3ccccc3O)n2)CC1 [Compound 52, [1-[6-(2-hydroxyphenyl)pyrazin-2-yl]-4-piperidyl]aminoformic acid tert-butyl ester] | < 10 |
| COCCOC(=O)N[C@@H]1CCN(c2cncc(-c3ccccc3O)n2)C1 [Compound 16, [1-[6-(2-hydroxyphenyl)pyrazin-2-yl]pyrrolidin-3-yl]aminoformic acid 2-methoxyethyl ester] | > 15 |
| CC(C)C[C@@H](O)C(=O)N1CCN(c2ccnc(-c3ccccc3F)n2)CC1 [Compound 42, 1-[4-[2-(2-fluorophenyl)pyrimidin-4-yl]piperazin-1-yl]-2-hydroxy-4-methyl-pentan-1-one] | > 15 |
| CC(C)C[C@@H](O)C(=O)N1CCN(c2cc(-c3ccccc3F)ncn2)CC1 [Compound 44, 1-[4-[6-(2-fluorophenyl)pyrimidin-4-yl]piperazin-1-yl]-2-hydroxy-4-methyl-pentan-1-one] | > 15 |
| CC(C)COC(=O)N1CCN(c2nccc(-c3ccccc3C(F)F)n2)CC1 [Compound 24, 4-[4-[2-(difluoromethyl)phenyl]pyrimidin-2-yl]piperazine-1-carboxylic acid isobutyl ester] | 10 to 15 |
| CC(C)COC(=O)NC1CCN(c2ccnc(-c3ccccc3O)n2)CC1 [Compound 35, [1-[2-(2-hydroxyphenyl)pyrimidin-4-yl]-4-piperidyl]aminoformic acid isobutyl ester] | 10 to 15 |
| O=C(NC1CCN(c2ccnc(-c3ccccc3O)n2)CC1)[C@H]1CCCO1 [Compound 29, N-[1-[2-(2-hydroxyphenyl)pyrimidin-4-yl]-4-piperidyl]tetrahydrofuran-2-carboxamide] | > 15 |
| CC(C)COC(=O)N1CCN(c2cncc(-c3ccccc3F)n2)CC1 [Compound 46, 4-[6-(2-fluorophenyl)pyrazin-2-yl]piperazine-1-carboxylic acid isobutyl ester] | > 15 |
| CC(C)COC(=O)N1CCN(c2ccnc(-c3ccccc3C(F)F)n2)CC1 [Compound 32, 4-[2-[2-(difluoromethyl)phenyl]pyrimidin-4-yl]piperazine-1-carboxylic acid isobutyl ester] | > 15 |
| CC(C)OC(=O)N[C@@H]1CCN(c2cncc(-c3ccccc3F)n2)C1 [Compound 22, [1-[6-(2-fluorophenyl)pyrazin-2-yl]pyrrolidin-3-yl]aminoformic acid isopropyl ester] | > 15 |
| CC(C)COC(=O)N[C@H]1CCN(c2cncc(-c3ccccc3C(F)F)n2)C1 [Compound 36, [1-[6-[2-(difluoromethyl)phenyl]pyrazin-2-yl]pyrrolidin-3-yl]aminoformic acid isobutyl ester] | < 10 |
| CC(C)COC(=O)N1CCN(c2ccnc(-c3ccccc3O)n2)CC1 [Compound 34, 4-[2-(2-hydroxyphenyl)pyrimidin-4-yl]piperazine-1-carboxylic acid isobutyl ester] | > 15 |
| CC(C)OC(=O)N[C@@H]1CCN(c2cncc(-c3ccccc3O)n2)C1 [Compound 41, [1-[6-(2-hydroxyphenyl)pyrazin-2-yl]pyrrolidin-3-yl]aminoformic acid isopropyl ester] | > 15 |
